# Data reported in patent US4338305A, “Use of LRH and LRH agonists” (American Home Products Corporation, priority 1975, dated 1982).
# Counter-ions that a name gives are not always drawn. Like-named read-outs stand apart in the source and are kept apart here. Non-standard residues stand in square brackets, D forms with d. Residues, ends and D or L forms follow the SMILES beside them. pGlu = O=C1CC[C@@H](C(=O)O)N1
# How the values were obtained:
# [1] = tested on: Female, Sprague-Dawley rats
# Source text: Female, Sprague-Dawley rats, 350±30 g., are caged daily (P.M.) with adult, sexually experienced Sprague-Dawley males. Vaginal smears are taken each A.M. after cohabitation. The presence of vaginal sperm is used as the index of mating and the initiation of pregnancy. Day 1 of pregnancy is taken as the day sperm is found in the vaginal smear. Mated females are then grouped separately. Treatment is begun at any time over the first 12 days of pregnancy at a divided dose (9 A.M. and 3 P.M.) or a single treatment. Claudogenic activity is defined for compounds administered over the first 7 days inclusive of pregnancy (Pre-implantation). Interceptive activity is defined for compounds administered days 7-12 inclusive of pregnancy (Post-implantation). Rats are sacrificed on day 14 (claudogen), day 18 (interceptive) or allowed to come to term prior to the option of sacrifice (claudogen or interceptive.) Rats containing at least one "Normal" fetus are considered pregnant.
# For the purpose of defining the post-coital stages of pregnancy in the rat as an experimental model, the following schedule is provided in definition of post-coital contraceptive activity which, for the purpose of this disclosure, is intended to embrace both pre-(claudogenic) and post-(interceptive) implantation contraceptive activity: day 1--vaginal sperm; days 1-3--ova transport in oviducts, and fertilization; days 3-5 blastocyst free in uterine lumen; days 5-7--implantation into uterine wall; days>7--post implantation.
# [2] = literature report; cited from earlier work
# Proestrous female rats = assay: Ovulation Induction in the Rat; format: in vivo; conditions: as a result of induced LH production
# Method: (b) Ovulation Induction in the Rat
# Proestrous female rats were injected intraperitoneally with a hypnotic dose of Nembutal about (~60 mg/kg) at 1:30 P.M. This treatment blocks the spontaneous ovulatory surge of pituitary LH which generally occurs between 2:00 and 4:00 P.M. Between 1:40 and 1:50 P.M. the recipients then received the test material via the jugular vein. The following morning the animals are sacrificed and the fallopian tubes examined for ova under a dissecting microscope.
# [3] = PO, total daily dose 500 μg/rat, Rx days 7-12 post coitus
# [4] = PO, total daily dose 1000 μg/rat, Rx days 1-7 post coitus
# [5] = PO, total daily dose 1000 μg/rat, Rx days 7-12 post coitus
# [6] = SC, total daily dose 5.0 μg/rat, Rx days 7-12 post coitus
# [7] = SC, total daily dose 100 μg/rat, Rx days 1-3 post coitus
# [8] = SC, total daily dose 100 μg/rat, Rx days 1-7 post coitus
# [9] = SC, total daily dose 200 μg/rat, Rx days 1-3 post coitus
# [10] = SC, total daily dose 5000 μg/rat, Rx day 3 post coitus
# [11] = PO, total daily dose 500 μg/rat, Rx days 1-7 post coitus
# [12] = SC, total daily dose 300 μg/rat, Rx days 1-3 post coitus
smiles,measurement,setting,value
CCNC(=O)[C@@H]1CCCN1C(=O)[C@H](CCCNC(=N)N)NC(=O)[C@H](CC(C)C)NC(=O)[C@@H](C)NC(=O)[C@H](Cc1ccc(O)cc1)NC(=O)[C@H](CO)NC(=O)[C@H](Cc1c[nH]c2ccccc12)NC(=O)[C@H](Cc1c[nH]cn1)NC(=O)[C@@H]1CCC(=O)N1,% inhibition of Pregnancy,"[1]; PO, total daily dose 200 μg/rat, Rx days 7-12 post coitus",0%
same,% inhibition of Pregnancy,[1]; [3],67%
same,% inhibition of Pregnancy,[1]; [4],100%
same,% inhibition of Pregnancy,[1]; [5],100%
same,% inhibition of Pregnancy,"[1]; SC, total daily dose 0.10 μg/rat, Rx days 7-12 post coitus",0%
same,% inhibition of Pregnancy,"[1]; SC, total daily dose 1.0 μg/rat, Rx days 1-7 post coitus",100%
same,% inhibition of Pregnancy,"[1]; SC, total daily dose 1.0 μg/rat, Rx days 7-12 post coitus",100%
same,% inhibition of Pregnancy,[1]; [6],100%
same,% inhibition of Pregnancy,"[1]; SC, total daily dose 50 μg/rat, Rx days 1-3 post coitus",40%
same,% inhibition of Pregnancy,[1]; [7],80%
same,% inhibition of Pregnancy,[1]; [8],100%
same,% inhibition of Pregnancy,[1]; [9],100%
same,% inhibition of Pregnancy,[1]; [10],100%
same,% inhibition of Pregnancy,"[1]; SC, total daily dose 5000 μg/rat, Rx day 7 post coitus",0%
same,% inhibition of Pregnancy,"[1]; SC, total daily dose 5000 μg/rat, Rx day 8 post coitus",100%
same,% inhibition of Pregnancy,"[1]; SC, total daily dose .002 μg/rat, Rx days 1-7 post coitus",0%
same,% inhibition of Pregnancy,"[1]; SC, total daily dose .010 μg/rat, Rx days 1-7 post coitus",30%
same,activity relative to LRH,[2],~50 times
same,"potency/activity versus LRH, in words",[2],markedly more potent than LRH
CCNC(=O)[C@@H]1CCCN1C(=O)[C@H](CCCNC(=N)N)NC(=O)[C@H](CC(C)C)NC(=O)[C@@H](CC(C)C)NC(=O)[C@H](Cc1ccc(O)cc1)NC(=O)[C@H](CO)NC(=O)[C@H](Cc1c[nH]c2ccccc12)NC(=O)[C@H](Cc1c[nH]cn1)NC(=O)[C@@H]1CCC(=O)N1,% inhibition of Pregnancy,[1]; [9],20%
same,% inhibition of Pregnancy,"[1]; SC, total daily dose 200 μg/rat, Rx days 1-7 post coitus",100%
CCNC(=O)[C@@H]1CCCN1C(=O)[C@H](CCCNC(=N)N)NC(=O)[C@H](CC(C)C)NC(=O)[C@@H](CC)NC(=O)[C@H](Cc1ccc(O)cc1)NC(=O)[C@H](CO)NC(=O)[C@H](Cc1c[nH]c2ccccc12)NC(=O)[C@H](Cc1c[nH]cn1)NC(=O)[C@@H]1CCC(=O)N1,% inhibition of Pregnancy,[1]; [3],20%
same,% inhibition of Pregnancy,"[1]; SC, total daily dose 5.0 μg/rat, Rx days 1-7 post coitus",40%
same,% inhibition of Pregnancy,[1]; [6],80%
same,% inhibition of Pregnancy,[1]; [8],100%
CCNC(=O)[C@@H]1CCCN1C(=O)[C@H](CCCNC(=N)N)NC(=O)[C@H](CS)NC(=O)[C@@H](C)NC(=O)[C@H](Cc1ccc(O)cc1)NC(=O)[C@H](CO)NC(=O)[C@H](Cc1c[nH]c2ccccc12)NC(=O)[C@H](Cc1c[nH]cn1)NC(=O)[C@@H]1CCC(=O)N1 ([pGlu]HWSY[dA]CRP-NHEt),activity relative to LRH as ovulation inducing agents,Proestrous female rats,> 40 times
CCNC(=O)[C@@H]1CCCN1C(=O)[C@H](CCCNC(=N)N)NC(=O)[C@H](CS)NC(=O)[C@@H](CC(C)C)NC(=O)[C@H](Cc1ccc(O)cc1)NC(=O)[C@H](CO)NC(=O)[C@H](Cc1c[nH]c2ccccc12)NC(=O)[C@H](Cc1c[nH]cn1)NC(=O)[C@@H]1CCC(=O)N1 ([pGlu]HWSY[dL]CRP-NHEt),activity relative to LRH as ovulation inducing agents,Proestrous female rats,> 40 times
CCNC(=O)[C@@H]1CCCN1C(=O)[C@H](CCCNC(=N)N)NC(=O)[C@H](CO)NC(=O)[C@@H](CC(C)C)NC(=O)[C@H](Cc1ccc(O)cc1)NC(=O)[C@H](CO)NC(=O)[C@H](Cc1c[nH]c2ccccc12)NC(=O)[C@H](Cc1c[nH]cn1)NC(=O)[C@@H]1CCC(=O)N1 ([pGlu]HWSY[dL]SRP-NHEt),activity relative to LRH as ovulation inducing agents,Proestrous female rats,> 40 times
CCNC(=O)[C@@H]1CCCN1C(=O)[C@H](CCCNC(=N)N)NC(=O)[C@H](CO)NC(=O)[C@@H](CO)NC(=O)[C@H](Cc1ccc(O)cc1)NC(=O)[C@H](CO)NC(=O)[C@H](Cc1c[nH]c2ccccc12)NC(=O)[C@H](Cc1c[nH]cn1)NC(=O)[C@@H]1CCC(=O)N1 ([pGlu]HWSY[dS]SRP-NHEt),activity relative to LRH as ovulation inducing agents,Proestrous female rats,> 40 times
"CC(C)C[C@H](NC(=O)CNC(=O)[C@H](Cc1ccc(O)cc1)NC(=O)[C@H](CO)NC(=O)[C@H](Cc1c[nH]c2ccccc12)NC(=O)[C@H](Cc1cnc[nH]1)NC(=O)[C@@H]1CCC(=O)N1)C(=O)N[C@@H](CCCNC(=N)N)C(=O)N1CCC[C@H]1C(=O)NCC(N)=O [LRH, L-(5-oxo-prolyl)-L-histidyl-L-tryptophyl-L-seryl-L-tyrosyl-glycyl-L-leucyl-L-arginyl-L-prolyl-glycinamide, reference compound]",% inhibition of Pregnancy,[1]; [11],20%
same,% inhibition of Pregnancy,[1]; [3],0%
same,% inhibition of Pregnancy,[1]; [4],60%
same,% inhibition of Pregnancy,[1]; [5],100%
same,% inhibition of Pregnancy,"[1]; SC, total daily dose 50 μg/rat, Rx days 1-7 post coitus",0%
same,% inhibition of Pregnancy,[1]; [7],0%
same,% inhibition of Pregnancy,[1]; [8],100%
same,% inhibition of Pregnancy,"[1]; SC, total daily dose 200 μg/rat, Rx days 7-12 post coitus",50%
same,% inhibition of Pregnancy,[1]; [12],20%
same,% inhibition of Pregnancy,"[1]; SC, total daily dose 500 μg/rat, Rx days 1-3 post coitus",40%
same,% inhibition of Pregnancy,"[1]; SC, total daily dose 1000 μg/rat, Rx days 1-3 post coitus",40%
same,% inhibition of Pregnancy,"[1]; SC, total daily dose 1000 μg/rat, Rx days 1-7 post coitus",100%
same,% inhibition of Pregnancy,[1]; [10],100%
same,post-coital anti-pregnancy (claudogenic/interceptive) effect,"[1]; rat, administered post-coitally",effective in inhibiting pregnancy
same,teratogenicity,"[1]; rat, in vivo",some signs of teratogenicity
"CC(C)C[C@H](NC(=O)C(C)(C)NC(=O)[C@H](Cc1ccc(O)cc1)NC(=O)[C@H](CO)NC(=O)[C@H](Cc1c[nH]c2ccccc12)NC(=O)[C@H](Cc1c[nH]cn1)NC(=O)[C@@H]1CCC(=O)N1)C(=O)N[C@@H](CCCNC(=N)N)C(=O)N1CCC[C@H]1C(=O)NCC(N)=O [[2-methyl-Ala^6]LRH, L-(5-oxoprolyl)-L-histidyl-L-tryptophyl-L-seryl-L-tyrosyl-2-methylalanyl-L-leucyl-L-arginyl-L-prolylglycinamide acetate salt]",% inhibition of Pregnancy,[1]; [8],75%
same,% inhibition of Pregnancy,"[1]; SC, total daily dose 500 μg/rat, Rx days 1-7 post coitus",100%
CC(C)C[C@H](NC(=O)[C@@H](C)NC(=O)[C@H](Cc1ccc(O)cc1)NC(=O)[C@H](CO)NC(=O)[C@H](Cc1c[nH]c2ccccc12)NC(=O)[C@H](Cc1c[nH]cn1)NC(=O)[C@@H]1CCC(=O)N1)C(=O)N[C@@H](CCCNC(=N)N)C(=O)N1CCC[C@H]1C(=O)NCC(N)=O [[D-Ala^6]LRH],% inhibition of Pregnancy,[1]; [7],17%
same,% inhibition of Pregnancy,[1]; [12],50%
"CCNC(=O)[C@@H]1CCCN1C(=O)[C@H](CCCNC(=N)N)NC(=O)[C@H](CC(C)C)NC(=O)[C@@H](CC(=O)O)NC(=O)[C@H](Cc1ccc(O)cc1)NC(=O)[C@H](CO)NC(=O)[C@H](Cc1c[nH]c2ccccc12)NC(=O)[C@H](Cc1c[nH]cn1)NC(=O)[C@@H]1CCC(=O)N1 [[D-Asp^6, des-Gly-NH2^10]LRH ethylamide]",activity relative to LRH as ovulation inducing agents,Proestrous female rats,> 40 times
"CCNC(=O)[C@@H]1CCCN1C(=O)[C@H](CCCNC(=N)N)NC(=O)[C@H](CC(C)C)NC(=O)[C@@H](CS)NC(=O)[C@H](Cc1ccc(O)cc1)NC(=O)[C@H](CO)NC(=O)[C@H](Cc1c[nH]c2ccccc12)NC(=O)[C@H](Cc1c[nH]cn1)NC(=O)[C@@H]1CCC(=O)N1 [[D-Cys^6, des-Gly-NH2^10]LRH ethylamide]",activity relative to LRH as ovulation inducing agents,Proestrous female rats,> 40 times
"CCNC(=O)[C@@H]1CCCN1C(=O)[C@H](CCCNC(=N)N)NC(=O)[C@H](CC(C)C)NC(=O)[C@@H](CCC(=O)O)NC(=O)[C@H](Cc1ccc(O)cc1)NC(=O)[C@H](CO)NC(=O)[C@H](Cc1c[nH]c2ccccc12)NC(=O)[C@H](Cc1c[nH]cn1)NC(=O)[C@@H]1CCC(=O)N1 [[D-Glu^6, des-Gly-NH2^10]LRH ethylamide]",activity relative to LRH as ovulation inducing agents,Proestrous female rats,> 40 times
"CCNC(=O)[C@@H]1CCCN1C(=O)[C@H](CCCNC(=N)N)NC(=O)[C@H](CC(C)C)NC(=O)[C@@H](CCCCN)NC(=O)[C@H](Cc1ccc(O)cc1)NC(=O)[C@H](CO)NC(=O)[C@H](Cc1c[nH]c2ccccc12)NC(=O)[C@H](Cc1c[nH]cn1)NC(=O)[C@@H]1CCC(=O)N1 [[D-Lys^6, des-Gly-NH2^10]LRH ethylamide]",activity relative to LRH as ovulation inducing agents,Proestrous female rats,> 40 times
"CC(C)C[C@H](NC(=O)[C@@H](CCCCN)NC(=O)[C@H](Cc1ccc(O)cc1)NC(=O)[C@H](CO)NC(=O)[C@H](Cc1c[nH]c2ccccc12)NC(=O)[C@H](Cc1c[nH]cn1)NC(=O)[C@@H]1CCC(=O)N1)C(=O)N[C@@H](CCCNC(=N)N)C(=O)N1CCC[C@H]1C(=O)NCC(N)=O [[D-Lys^6]LRH, L-Pyroglutamyl-L-histidyl-L-tryptophyl-L-seryl-L-tyrosyl-D-lysyl-L-leucyl-L-arginyl-L-prolyl-glycinamide]",% inhibition of Pregnancy,[1]; [11],40%
same,% inhibition of Pregnancy,"[1]; SC, total daily dose 5.0 μg/rat, Rx days 1-12 post coitus",20%
same,% inhibition of Pregnancy,[1]; [7],0%
same,% inhibition of Pregnancy,[1]; [12],60%
same,% inhibition of Pregnancy,"[1]; SC, total daily dose 300 μg/rat, Rx days 1-7 post coitus",100%
